In brackets after ≈: the same amount, converted by molar mass.
Legend:
Assay type in all cases: functional
Aspergillus fumigatus = assay: In vitro antifungal activity against Aspergillus fumigatus MTU6001
[1] = Mean survival days evaluated in vivo for prophylactic efficiency against murine systemic candidiasis at a dose of 10 mg/kg
[2] = Mean survival days evaluated in vivo for prophylactic efficiency against murine systemic aspergillosis at a dose of 50 mg/kg
Candida albicans = assay: In vitro antifungal activity against Candida albicans KB-8
Mus musculus = assay: Mean survival days evaluated in vivo for prophylactic efficiency against murine systemic aspergillosis at a dose of 100 mg/kg

| Structure (SMILES) | MIC (Aspergillus fumigatus) [µg/mL] | Mean survival [1] [days] | Mean survival [2] [days] | MIC (Candida albicans) [µg/mL] | Mean survival (Mus musculus) [days] |
| --- | --- | --- | --- | --- | --- |
| CCCCCCCCCCCS(=O)(=O)[C@H](C)[C@](O)(Cn1cncn1)c1ccc(F)cc1F | 3.13 (≈ 6.64 µM) | 1.1 | 1.6 | ≤ 0.013 |  |
| CCCCCCCCS(=O)(=O)[C@H](C)[C@](O)(Cn1cncn1)c1ccc(F)cc1F | 3.13 (≈ 7.29 µM) | 1.3 | 1.6 | ≤ 0.013 |  |
| CCCCCCCCCCCS[C@H](C)[C@](O)(Cn1cncn1)c1ccc(F)cc1F | 25 (≈ 56.9 µM) | 5.8 | 1.6 | ≤ 0.013 |  |
| C[C@H]([C@](O)(Cn1cncn1)c1ccc(F)cc1F)S(=O)(=O)CCCCCCCO | 25 (≈ 57.9 µM) | 1 | 1.2 | 0.39 (≈ 0.904 µM) |  |
| CCCCCCCCS[C@H](C)[C@](O)(Cn1cncn1)c1ccc(F)cc1F | 0.39 (≈ 0.981 µM) | 8.6 | 7.2 | ≤ 0.013 |  |
| CCCCS(=O)(=O)[C@H](C)[C@](O)(Cn1cncn1)c1ccc(F)cc1F | 12.5 (≈ 33.5 µM) | 7.6 | 4.1 | 0.2 (≈ 0.536 µM) |  |
| CCCCCCS[C@H](C)[C@](O)(Cn1cncn1)c1ccc(F)cc1F | 0.39 (≈ 1.06 µM) | 9.2 | 6.8 | ≤ 0.013 |  |
| C[C@@H](SCCCCO)[C@](O)(Cn1cncn1)c1ccc(F)cc1F | 6.25 (≈ 17.5 µM) | 2.5 | 3.2 | 0.2 (≈ 0.56 µM) |  |
| C[C@@H](SCCCCCCCCO)[C@](O)(Cn1cncn1)c1ccc(F)cc1F | ≤ 0.2 | 4.3 | 3.5 | ≤ 0.013 |  |
| CCCCCCCCCCS(=O)(=O)[C@H](C)[C@](O)(Cn1cncn1)c1ccc(F)cc1F | < 0.2 | 3.9 | 1.5 | ≤ 0.013 |  |
| CCCCS[C@H](C)[C@](O)(Cn1cncn1)c1ccc(F)cc1F | 0.78 (≈ 2.28 µM) | 9.9 | 2.5 | ≤ 0.013 |  |
| CCCCCCCCCS(=O)(=O)[C@H](C)[C@](O)(Cn1cncn1)c1ccc(F)cc1F | 0.78 (≈ 1.76 µM) | 0.6 | 1 | ≤ 0.013 |  |
| CCCCCS(=O)(=O)[C@H](C)[C@](O)(Cn1cncn1)c1ccc(F)cc1F | 25 (≈ 64.5 µM) | 0.4 | 3.6 | 0.2 (≈ 0.516 µM) |  |
| C[C@@H](SCCCCCCO)[C@](O)(Cn1cncn1)c1ccc(F)cc1F | 0.78 (≈ 2.02 µM) | 2.8 | 2.8 | ≤ 0.013 |  |
| CCCCCCS(=O)(=O)[C@H](C)[C@](O)(Cn1cncn1)c1ccc(F)cc1F | 12.5 (≈ 31.1 µM) | 2.6 | 1.6 | 0.1 (≈ 0.249 µM) |  |
| CCCCCCCS(=O)(=O)[C@H](C)[C@](O)(Cn1cncn1)c1ccc(F)cc1F | 6.25 (≈ 15 µM) | 0.9 | 1.1 | ≤ 0.013 |  |
| OC(Cn1cncn1)(Cn1cncn1)c1ccc(F)cc1F [FLUCONAZOLE] | 400 (≈ 1310 µM) | 10 |  | 0.78 (≈ 2.55 µM) | 2.8 |
| CCCS(=O)(=O)[C@H](C)[C@](O)(Cn1cncn1)c1ccc(F)cc1F | 6.25 (≈ 17.4 µM) | 8.3 | 10 | 0.2 (≈ 0.556 µM) |  |
| C[C@@H](SCCCCCO)[C@](O)(Cn1cncn1)c1ccc(F)cc1F | 0.78 (≈ 2.1 µM) | 9.8 | 10 | 0.025 (≈ 0.0673 µM) |  |
| CCCS[C@H](C)[C@](O)(Cn1cncn1)c1ccc(F)cc1F | 12.5 (≈ 38.2 µM) | 4.4 | 1 | 0.1 (≈ 0.305 µM) |  |
| C[C@H]([C@](O)(Cn1cncn1)c1ccc(F)cc1F)S(=O)(=O)CCCCCCO | 100 (≈ 240 µM) | 1.4 | 3.1 | 0.39 (≈ 0.934 µM) |  |
| CCS[C@H](C)[C@](O)(Cn1cncn1)c1ccc(F)cc1F | 1.56 (≈ 4.98 µM) | 10 | 9.8 | 0.025 (≈ 0.0798 µM) |  |
| C[C@H]([C@](O)(Cn1cncn1)c1ccc(F)cc1F)S(=O)(=O)CCCCCCCCO | 6.25 (≈ 14 µM) | 0.5 | 3 | 0.1 (≈ 0.224 µM) |  |
| C[C@H]([C@](O)(Cn1cncn1)c1ccc(F)cc1F)S(C)(=O)=O [GENACONAZOLE] | 12.5 (≈ 37.7 µM) | 10 | 10 | 0.2 (≈ 0.604 µM) |  |
| C[C@@H](SCCCCCCCO)[C@](O)(Cn1cncn1)c1ccc(F)cc1F | 0.78 (≈ 1.95 µM) | 10 | 9.7 | ≤ 0.013 |  |
| CCCCCCCCCCS[C@H](C)[C@](O)(Cn1cncn1)c1ccc(F)cc1F | 0.78 (≈ 1.83 µM) | 9.1 | 8 | ≤ 0.013 |  |
| CCCCCS[C@H](C)[C@](O)(Cn1cncn1)c1ccc(F)cc1F | 0.78 (≈ 2.19 µM) | 9.9 | 2.5 | ≤ 0.013 |  |
| CCCCCCCCCS[C@H](C)[C@](O)(Cn1cncn1)c1ccc(F)cc1F | 3.13 (≈ 7.61 µM) | 5 | 1.8 | ≤ 0.013 |  |
| CCCCCCCS[C@H](C)[C@](O)(Cn1cncn1)c1ccc(F)cc1F | ≤ 0.2 | 10 | 2.2 | ≤ 0.013 |  |
